From ChEMBL document CHEMBL4304773, “Nitroimidazole-containing compounds and their antibacterial and antitubercular activities” (2019)
In brackets after ≈: the same amount, converted by molar mass. One block for each compound: values may come before it.

Legend:
Staphylococcus aureus [1] = test: Antibacterial activity against Staphylococcus aureus ATCC 25923 after 24 hrs by NCCLS method; assay type: functional; conditions: ATCC 25923, 24 h
Bacillus subtilis [2] = test: Antibacterial activity against Bacillus subtilis ATCC 530 after 24 hrs by NCCLS method; assay type: functional; conditions: ATCC 530, 24 h
Escherichia coli [3] = test: Antibacterial activity against Escherichia coli ATCC 25922 after 24 hrs by NCCLS method; assay type: functional; conditions: ATCC 25922, 24 h
Pseudomonas aeruginosa [4] = test: Antibacterial activity against Pseudomonas aeruginosa ATCC 27853 after 24 hrs by NCCLS method; assay type: functional; conditions: ATCC 27853, 24 h
Escherichia coli [5] = test: Antibacterial activity against Escherichia coli; assay type: functional
Pseudomonas aeruginosa [6] = test: Antibacterial activity against Pseudomonas aeruginosa; assay type: functional
Klebsiella aerogenes [7] = test: Antibacterial activity against Klebsiella aerogenes; assay type: functional
Enterococcus faecalis = test: Antibacterial activity against Enterococcus faecalis; assay type: functional
Staphylococcus aureus [8] = test: Antibacterial activity against Staphylococcus aureus ATCC 25923; assay type: functional
Staphylococcus aureus [9] = test: Antibacterial activity against Staphylococcus aureus ATCC 29213; assay type: functional
Staphylococcus aureus [10] = test: Antibacterial activity against methicillin-resistant Staphylococcus aureus N315; assay type: functional
Pseudomonas aeruginosa [11] = test: Antibacterial activity against Pseudomonas aeruginosa ATCC 27853; assay type: functional
Acinetobacter baumannii = test: Antibacterial activity against Acinetobacter baumannii; assay type: functional
Escherichia coli [12] = test: Antibacterial activity against Escherichia coli ATCC 25922; assay type: functional
Klebsiella pneumoniae [13] = test: Antibacterial activity against Klebsiella pneumoniae; assay type: functional
Staphylococcus aureus [14] = test: Antibacterial activity against Staphylococcus aureus ATCC 6538 after 18 hrs by two fold serial dilution; assay type: functional; conditions: ATCC 6538, 18 h
Bacillus subtilis [15] = test: Antibacterial activity against Bacillus subtilis PTCC 1023 after 18 hrs by two fold serial dilution; assay type: functional; conditions: PTCC 1023, 18 h
Klebsiella pneumoniae [16] = test: Antibacterial activity against Klebsiella pneumoniae ATCC 10031 after 18 hrs by two fold serial dilution; assay type: functional; conditions: ATCC 10031, 18 h
Escherichia coli [17] = test: Antibacterial activity against Escherichia coli ATCC 8739 after 18 hrs by two fold serial dilution; assay type: functional; conditions: ATCC 8739, 18 h
Klebsiella aerogenes [18] = test: Antibacterial activity against Enterobacter aerogenes PTCC 1221 after 18 hrs by two fold serial dilution; assay type: functional; conditions: PTCC 1221, 18 h
[19] = test system: Staphylococcus epidermidis; test: Antibacterial activity against Staphylococcus epidermidis ATCC 12228 after 18 hrs by two fold serial dilution; assay type: functional; conditions: ATCC 12228, 18 h
Staphylococcus aureus [20] = test: Antibacterial activity against Staphylococcus aureus; assay type: functional
Streptococcus pyogenes = test: Antibacterial activity against Streptococcus pyogenes; assay type: functional
Candida albicans = test: Antifungal activity against Candida albicans; assay type: functional
Proteus vulgaris = test: Antibacterial activity against Proteus vulgaris; assay type: functional
[21] = test system: Staphylococcus epidermidis; test: Antibacterial activity against Staphylococcus epidermidis; assay type: functional
Salmonella typhimurium = test: Antibacterial activity against Salmonella typhimurium; assay type: functional, Salmonella enterica subsp. enterica serovar Typhimurium; conditions: Salmonella enterica
Bacillus subtilis [22] = test: Antibacterial activity against Bacillus subtilis; assay type: functional
Proteus = test: Antibacterial activity against Proteus; assay type: functional

- MIC (Staphylococcus aureus [1]): 3.12 to 50 µg/mL (≈ 6.53 to 105 µM)
- MIC (Bacillus subtilis [2]): 3.12 to 50 µg/mL (≈ 6.53 to 105 µM)
- MIC (Escherichia coli [3]): 3.12 to 50 µg/mL (≈ 6.53 to 105 µM)
- MIC (Pseudomonas aeruginosa [4]): 3.12 to 50 µg/mL (≈ 6.53 to 105 µM)
SMILES: Cc1nn(-c2ccccc2)c(Oc2ccc(F)cc2)c1/C=N/NC(=O)Cn1c([N+](=O)[O-])cnc1C

- MIC (Staphylococcus aureus [14]): 2 to 64 µg/mL (≈ 5.18 to 166 µM)
- MIC (Bacillus subtilis [15]): 2 to 64 µg/mL (≈ 5.18 to 166 µM)
- MIC (Klebsiella pneumoniae [16]): 2 to 64 µg/mL (≈ 5.18 to 166 µM)
- MIC (Escherichia coli [17]): 2 to 64 µg/mL (≈ 5.18 to 166 µM)
- MIC [19]: 2 to 64 µg/mL (≈ 5.18 to 166 µM)
SMILES: Cn1cnc([N+](=O)[O-])c1S(=O)(=O)c1nnc(-c2ccc([N+](=O)[O-])o2)s1

- MIC (Staphylococcus aureus [20]): 184 to 2890 µM
- MIC (Streptococcus pyogenes): 184 to 2890 µM (≈ 67.6 to 1060 µg/mL)
SMILES: CCN1CCN(Cn2nc(Cn3cc([N+](=O)[O-])nc3C)oc2=S)CC1

- MIC (Staphylococcus aureus [20]): 184 to 2890 µM
- MIC (Streptococcus pyogenes): 184 to 2890 µM (≈ 77.7 to 1220 µg/mL)
SMILES: Cc1nc([N+](=O)[O-])cn1Cc1nn(CNc2ccc(-c3ccccc3)cc2)c(=S)o1

- MIC (Staphylococcus aureus [20]): 31.2 to 500 µg/mL
- MIC (Escherichia coli [5]): 31.2 to 500 µg/mL
- MIC (Pseudomonas aeruginosa [6]): 31.2 to 500 µg/mL
- MIC (Candida albicans): 31.2 to 500 µg/mL (≈ 79.6 to 1270 µM)
- MIC (Proteus vulgaris): 31.2 to 500 µg/mL (≈ 79.6 to 1270 µM)
- MIC (Klebsiella aerogenes [7]): 31.2 to 500 µg/mL
- MIC (Enterococcus faecalis): 31.2 to 500 µg/mL
- MIC [21]: 31.2 to 500 µg/mL (≈ 79.6 to 1270 µM)
- MIC (Salmonella typhimurium): 31.2 to 500 µg/mL (≈ 79.6 to 1270 µM)
SMILES: Cc1ncc([N+](=O)[O-])n1CCN1C(=O)S/C(=C\c2ccc(Cl)cc2)C1=O

- MIC (Staphylococcus aureus [20]): 64 to 128 µg/mL
- MIC (Bacillus subtilis [22]): 64 to 128 µg/mL (≈ 128 to 257 µM)
- MIC (Escherichia coli [5]): 64 to 128 µg/mL
- MIC (Pseudomonas aeruginosa [6]): 64 to 128 µg/mL
- MIC (Salmonella typhimurium): 64 to 128 µg/mL (≈ 128 to 257 µM)
- MIC (Proteus): 64 to 128 µg/mL (≈ 128 to 257 µM)
SMILES: Cc1ncc([N+](=O)[O-])n1CCCNS(=O)(=O)c1ccc(NCc2ccc(Cl)cc2Cl)cc1

Second part, the compound before the results:

SMILES: CCCCCCCCCCN1CCN(c2ccc3c4c(cccc24)C(=O)N(CC(O)Cn2c([N+](=O)[O-])cnc2C)C3=O)CC1 (configuration not stated)
- MIC (Escherichia coli [5]): 13 to 210 µM
- MIC (Pseudomonas aeruginosa [6]): 13 to 210 µM
- MIC (Klebsiella aerogenes [7]): 13 µM
- MIC (Enterococcus faecalis): 13 to 210 µM
- MIC (Staphylococcus aureus [8]): 13 to 210 µM (≈ 7.86 to 127 µg/mL)
- MIC (Staphylococcus aureus [9]): 13 to 210 µM (≈ 7.86 to 127 µg/mL)
- MIC (Staphylococcus aureus [10]): 13 to 210 µM (≈ 7.86 to 127 µg/mL)
- MIC (Pseudomonas aeruginosa [11]): 13 to 210 µM (≈ 7.86 to 127 µg/mL)
- MIC (Acinetobacter baumannii): 13 to 210 µM (≈ 7.86 to 127 µg/mL)
- MIC (Escherichia coli [12]): 13 to 210 µM (≈ 7.86 to 127 µg/mL)
- MIC (Klebsiella pneumoniae [13]): 13 to 210 µM (≈ 7.86 to 127 µg/mL)

SMILES: CC(=O)Nc1nnc(Sc2c([N+](=O)[O-])ncn2C)s1
- MIC (Staphylococcus aureus [14]): 4 to 32 µg/mL (≈ 13.3 to 107 µM)
- MIC (Bacillus subtilis [15]): > 64 µg/mL
- MIC (Klebsiella pneumoniae [16]): > 64 µg/mL
- MIC (Escherichia coli [17]): > 64 µg/mL
- MIC (Klebsiella aerogenes [18]): > 64 µg/mL

SMILES: COc1ccc(Oc2c(/C=N/NC(=O)Cn3c([N+](=O)[O-])cnc3C)c(C)nn2-c2ccc(C)cc2)cc1
- MIC (Staphylococcus aureus [1]): 3.12 to 50 µg/mL (≈ 6.2 to 99.3 µM)
- MIC (Bacillus subtilis [2]): 3.12 to 50 µg/mL (≈ 6.2 to 99.3 µM)
- MIC (Escherichia coli [3]): 3.12 to 50 µg/mL (≈ 6.2 to 99.3 µM)
- MIC (Pseudomonas aeruginosa [4]): 3.12 to 50 µg/mL (≈ 6.2 to 99.3 µM)

SMILES: Cc1cc([N+](=O)[O-])ccc1NCn1nc(Cn2cc([N+](=O)[O-])nc2C)oc1=S
- MIC (Staphylococcus aureus [20]): 184 to 2890 µM
- MIC (Streptococcus pyogenes): 184 to 2890 µM (≈ 74.6 to 1170 µg/mL)

SMILES: Cc1nc([N+](=O)[O-])cn1Cc1nn(CNc2ccc(Cl)cc2)c(=S)o1
- MIC (Staphylococcus aureus [20]): 184 to 2890 µM
- MIC (Streptococcus pyogenes): 184 to 2890 µM (≈ 70.1 to 1100 µg/mL)
